# Experimental data from a melting point compilation (Tetko et al.; mined from patent text by program, amines drawn as free bases though some values may be those of a salt).
row,SMILES,melting point [°C]
1,CCCC12CCC(=O)C=C1c1c(cc(OCC(=O)O)c(Cl)c1Cl)C2O (stereo unspecified),206 to 208
2,Fc1ccccc1N1CCN(Cc2nc3ccccc3[nH]2)CC1,262 to 264
3,Nc1cc(Cl)cc(C(=O)N[C@@H]2CN3CCC2CC3)c1OCc1cccc(I)c1,102 to 104
4,CCC(NC(=O)Cc1ccccc1)C(=NNC(N)=S)c1ccccc1 (stereo unspecified),121 to 124
5,COC(=O)Cc1sc(N=C2SC[C@@H]3Cc4ccccc4CN23)nc1C,66
6,Cc1ccc(CC(C)NCC(O)c2ccccc2)cc1 (stereo unspecified),74 to 94
7,O=P(O)(O)Cc1ccc(S(=O)(=O)c2ccccc2)cc1,217 to 219
8,CC1(C)CCC2(C(=O)O)CCC3(C)C(=CCC4C5(C)CC(O)C(O)C(C)(CO)C5CCC43C)C2C1O (stereo unspecified),220 to 222
9,C=Cc1cnc2c(NC(=O)c3c(Cl)cccc3Cl)cccc2c1CC(=O)NCc1ccccn1,194 to 195
10,OC(c1ccccc1)C(CN1CC=C(c2ccc(Cl)cc2)CC1)c1ccccc1 (stereo unspecified),135 to 137
11,CN(C(=S)Nc1nc(OCC(F)(F)F)cc(OCC(F)(F)F)n1)c1ccc(C(F)(F)F)cc1,109 to 111
12,COc1cc(C(=O)N(C(C)C)C2CCCCC2)ccc1Cn1c(C)nc2cccnc21,210 to 212
13,CN1CC(CN)Oc2c(-c3ccc(Cl)cc3Cl)cccc21 (stereo unspecified),90
14,NCCOc1ccc(C(=C(c2ccc(F)cc2)C(F)(F)F)c2ccccc2)cc1,83 to 89
15,CCCOc1ccc(C)cc1C(=N)OCC,148 to 150
16,COc1ccc(S(=O)(=O)/C(=C/C(=O)NO)CCCCc2ccccc2)cc1OC,123 to 126
17,Cc1cccc(CN2CCc3ccc(C(=O)CCC(=O)N4CCC(c5ccc(Cl)cc5)CC4)cc3CC2)c1,127 to 128
18,CCCCN(C(=O)Nc1ccc(F)cc1F)c1cnc2ccc(Cl)cc2c1-c1ccccc1Cl,63 to 66
19,CCOCc1cccc2[nH]cc(C(COC)C(C(=O)OCC)[N+](=O)[O-])c12 (stereo unspecified),118 to 120
20,COc1ccc(OCCCCCCI)cc1,64 to 66
21,Cc1c(C#N)c(N)nc(Cl)c1C#N,210
22,O=c1c2ccc(Cl)cc2nc2n1CS(=O)(=O)N2,> 300
23,CCOC(=O)c1cn(C)c2cnc3c(F)c(Cl)c(F)cc3c2c1=O,293
24,CN1CCC(c2c[nH]c3ccc(OS(=O)(=O)c4ccc(F)c(F)c4F)cc23)CC1,160 to 162
25,Cc1oc(-c2ccccc2)nc1CCOc1ccc(CC2SC(=O)NC2=O)cn1 (stereo unspecified),191 to 192
26,O=[N+]([O-])c1cc(F)c(N2CCC3(CC2)CO3)c(F)c1,96 to 97

row,SMILES,melting point [°C]
1,Cc1c(C)c2c(c(C)c1O)CCC(C)(C)O2,85 to 88
2,CCOC(=O)CCC(C#N)(c1ccc(C(F)(F)F)cc1)N1CCOCC1 (stereo unspecified),96 to 97
3,N#CCc1ncccc1[N+](=O)[O-],106 to 108
4,COc1cc(C)cc(OC)c1-c1nc(=NO)c(=O)n(C)c2ccccc12,150
5,CCCCCCCCCCCCCCCCCCOC(=O)ON1C(=O)c2ccccc2C1=O,83 to 89
6,CCCNC(=O)C1(CC=Cc2ccc([N+](=O)[O-])cc2)c2ccccc2-c2ccccc21,143 to 146
7,CCOC(=O)c1ccc2oc3ncccc3c(=O)c2c1,131 to 132
8,CCN1CCC(c2nc(-c3ccncc3)c(-c3ccc(F)cc3)[nH]2)CC1,242 to 244
9,Cc1cc2n(C)c(=O)c3cnc4c(cnn4C)c3n2n1,178 to 180
10,CC(C(=O)Nc1ccc(Cl)cc1Cl)N1C(=O)C=CC1=O (stereo unspecified),131
11,COC(=O)CCc1nc(I)ccc1O,145 to 148
12,CC(C)c1ncc(OCc2ccccc2)c(O)n1,198
13,CS(=O)(=O)c1ccc(C(=O)c2cnoc2C2CC2)c(Cl)c1-c1nccs1,153 to 155
14,Cc1cnc(N2CCC(c3ccc(NS(C)(=O)=O)cc3)CC2)n1C,225 to 226
15,Cn1c(-c2ccc(N3CCOCC3)cc2)cnc1[C@H](Cc1ccccn1)N(C=O)c1cc2cc(F)ccc2o1,130 to 132
16,C=CC(=O)OCCOC(=O)Nc1ccccc1,66 to 68
17,CC(C)(C)c1cc(Cl)ccc1N1CCN(C(=O)C(=O)O)CC1,154 to 155
18,CCCN1c2ccccc2N(C)C(=O)c2cccnc21,96 to 98
19,Cc1ccc(S(=O)(=O)OCCOc2ccc(Nc3ncc(C#N)c(-c4ccccc4)n3)cc2)cc1,147
20,CCc1cccc2c1CCN([C@@H]1CN3CCC1CC3)C2=O,> 290
21,OC1CSC(Oc2cccn3ncnc23)C(O)C1O (stereo unspecified),155
22,CCC1c2ccc(F)n2-c2ccc(Br)cc2N1S(=O)(=O)c1ccc(O)cc1 (stereo unspecified),160 to 162
23,O=C(NCCO)c1cccc(-c2cccn3nc(Nc4cccc(C(F)(F)F)c4)nc23)c1,215 to 216
24,COC(=O)c1ccccc1-c1nc2cc(C)ccc2o1,135 to 138
25,CSC(=C[N+](=O)[O-])NCC(O)c1cccc(C)c1 (stereo unspecified),99 to 101
26,O=C1NC(CN2CCN(c3ccccc3)CC2)Cc2c[nH]c3cccc1c23 (stereo unspecified),184 to 185

row,SMILES,melting point [°C]
1,ClCCCc1cc2cccnc2[nH]1,75
2,CCOC(=O)/C=C(C)/C=C/C=C(C)/C=C/c1c(C)cc(OC(F)(F)F)c(C)c1C,47 to 49
3,COc1ccc(CNC(=O)c2cc([N+](=O)[O-])ccc2N[C@@H](CO)CCSC)cc1OC,150 to 152
4,N=C(N)Nc1nc2cc(Cl)cc(Cl)c2[nH]1,264 to 265
5,COc1ccnc(CCc2nc3cc(-c4ccncc4)cnc3[nH]2)c1,237 to 238
6,O=C(NC12CC3CC(CC(C3)C1)C2)OCc1cccs1,66 to 68
7,O=C1CCC(N2Cc3c(O)cccc3C2=O)C(=O)N1 (stereo unspecified),296
8,O=c1[nH]c2cc(I)ccc2n(CP(=O)(O)O)c1=O,295 to 297
9,Cc1cc(Br)cnc1CCCCc1cc(N)cc2c1C(N)=NS2(=O)=O,276 to 279
10,N#Cc1cc(N2C(=O)C3=C(CCCC3)C2=O)c(F)cc1Cl,160 to 162
11,O=C(O)c1cc(=O)cc(-c2ccc(OCc3ccccc3)cc2)o1,235
12,CC(Cl)C(=O)c1ncc(Cl)cc1F (stereo unspecified),29 to 32
13,CNC(=S)C1(c2ccccn2)CCCS1 (stereo unspecified),131
14,O=C(O)c1cn(C2CC2)c2c(F)c(N3CCC(n4cc(-c5ccccc5)nn4)C3)c(F)cc2c1=O (stereo unspecified),241
15,Cn1ccc2c3c(c(C(=O)OCc4ccccc4)cc21)C(=O)NC3=O,186 to 189
16,CC(=O)O[C@H]1CC=CO[C@@H]1COS(=O)(=O)c1ccc(C)cc1,76 to 79
17,CN(Cc1cccc2c1CN(C1CCC(=O)NC1=O)C2=O)C(=O)NC(C)(C)C (stereo unspecified),216 to 218
18,COC(=O)c1ccc(Cn2c(=O)c3cc(C(=O)NCc4cccc(OC)c4)sc3n(C)c2=O)cc1C,175 to 177
19,O=C(O)CC(CC(=O)O)c1ccc2oc3c(c2c1)CCCC3,165 to 170
20,O=C1Nc2ccccc2C12COc1c(Cl)cc3c(c12)OCCO3 (stereo unspecified),255 to 257
21,CCCOc1cc(C(=O)O)cc(N)c1-c1ccccc1,101 to 102
22,O=S(=O)(Nc1ccc(Oc2ccc3cccnc3c2)cc1)c1ccc(F)cc1,175 to 178
23,CS(=O)(=O)N1CCN(CCC(CS(=O)(=O)c2ccc(Oc3ccc(OC(F)(F)F)cc3)cc2)N(O)C=O)CC1 (stereo unspecified),166 to 167
24,NS(=O)(=O)c1cccc(NC(=O)c2cnn3c(C(F)(F)F)cc(-c4ccc(C(F)(F)F)cc4)nc23)c1,155
25,CN(C)CCCNc1nc2cc(Cl)c(Cl)cc2nc1-c1ccccn1,59 to 61
26,O=C(O)c1ccc(OCCC2CC(=O)N(c3ccc(Cl)cc3)C2)cc1 (stereo unspecified),228 to 229

row,SMILES,melting point [°C]
1,CC(=C(c1ccc(N(C)C)cc1)c1ccc(N(C)C)cc1)P(c1ccccc1)c1ccccc1,95 to 97
2,Cc1c2ccccc2c(C)c2cc3c(cc12)C(=O)OC3=O,278
3,CC(C)(C(=O)c1ccc(OCC(=O)O)cc1)N1CCN(c2ccncc2)CC1,278 to 279
4,O=C1NC(=O)C(c2cccc(C(F)(F)F)c2)O1 (stereo unspecified),93 to 96
5,CCOC(=O)CN1C(=O)[C@@H](NC(=O)OC(C)(C)C)CC(=O)c2ccccc21,86 to 88
6,Cc1csc(-c2c(C)c(NC(=O)CC(C)(C)C)c(C)c3c2OCC3c2ccc(C(C)C)cc2)n1 (stereo unspecified),240 to 241
7,Cc1nc(N2CCN(C(=O)c3ccco3)CC2)nnc1-c1ccccc1,142
8,CC1(C)N(CC(N)=O)C(=O)CN1C(=O)CCl,214 to 216
9,Cn1cnnc1C(c1ccc(I)cc1)c1cc2c3c(c1)c(-c1cccc(Cl)c1)cc(=O)n3CC2 (stereo unspecified),194
10,COc1ccc(/C=C(\C#N)c2ccccc2OC)cc1OC1CCCC1,85 to 87.5
11,Nc1cccc2c1Cc1ccccc1C2=O,158 to 161
12,COc1cc(O)c(C(=O)c2ccccc2)cc1S(=O)(=O)Cl,165 to 172
13,O=C(N=P(c1ccccc1)(c1ccccc1)c1ccccc1)OCC1CC1,107 to 113
14,CCC(CC)C(NC(=O)c1ccc(Cl)cc1)NC(=NC#N)Nc1cccnc1 (stereo unspecified),185 to 187
15,CCn1c2ccccc2c2cc(NC(=O)OC)ncc21,213 to 214
16,CCCCCCNC(=O)NOCC(O)CN1CCCCC1 (stereo unspecified),50 to 52
17,O=C(C[C@@H]1COCCO1)N[C@H]1CC[C@H](CCN2CCC(c3cccc4c3CCO4)CC2)CC1,190
18,CCCCc1cc2ccccc2c(Oc2ccc(/C=C/C(=O)O)cc2)c1-c1ccc(OC)cc1,186 to 187
19,COc1ccc2nc(Cl)nc(Nc3ccccc3)c2c1,177 to 179
20,Cn1cc(-c2cc(-c3cnc4ccccc4c3)ccn2)n(-c2ccc(C(C)(C)C(N)=O)cc2)c1=O,259
21,Oc1ccc(-c2ccc(C=C(Br)Br)s2)cc1,99 to 101
22,NS(=O)(=O)c1cc(C(=O)O)cc(SCc2ccccc2)c1-c1ccccc1,114 to 120
23,Cc1ccc(-c2nc(CCCC#N)c(C(F)(F)F)o2)cc1,41 to 42.5
